Test system: Fab S8-gp120 III-B binding
Test: Peptide inhibition of gp120-Fab S8 binding (ELISA)
Design: species or system HIV-1
Method: Peptides from selected phage clones were synthesised by Isogen (Maarssen, The Netherlands). For binding competition experiments, purified S8 Fab (1 μg/ml) was incubated (4° C., 4 h) with several dilutions of the corresponding peptide before addition to gp120III-B (2 μg/ml)-coated microtiter wells.

[1] = peptide 50 μg/ml (124R1: a similar concentration), Fab S8 1 μg/ml

Sequence	inhibition of Fab S8-gp120 binding [1]	inhibition of Fab S8-gp120 binding (peptide concentration not given)
FLQPPDFSHLPP [Fab 124R1]	15%	
GIQLANPPRLYG [Fab 124R9]	50%	
LLADTTHHRPWT [Fab 124R4]	50%	
QEVGKAMYAPPI [ENV-9, peptide corresponding to gp120 amino acid residues 428-439]		50%

Reference: patent US20110059015A1, “VACCINE” (priority 2002, published 2011)
